Laboratory results from patent US8551958B2, “Galactosylated pro-drugs of non-steroidal anti-inflammatories with improved pharmacokinetic characteristics and reduced toxicity of the starting drug” (Stewart Italia Srl, priority 2008, dated 2013).

Tests used:
[1] = system: mouse carrageenan paw oedema; assay: Carrageenan oedema test; type: in vivo, mice; conditions: for Carrageenan-induced oedema, first phase (0-6 h): pro-drug 16.3 mg/kg oral; for Oedema formation after parent drug: 10 mg/kg oral
Method: Anti-inflammatory activity was tested by means of the carrageenan oedema test. The mice were divided into groups of six. The initial volumes of the leg of all the animals were measured using a plethysmometer. The oedema is induced in the leg by means of sub-plantar injection of 50 μl of saline solution containing 1% of carrageenan. The volume of the leg was measured at different time intervals. Said experimental model consists of two phases: a first, acute, phase lasting 6 hours and a second, chronic, phase, up to 72 hours.
The anti-inflammatory activity of the physical mixture of ketorolac and galactose was evaluated with the carrageenan induced mice hind paw edema assay, as described for ketogal. […]
The carrageenan induced mice hind paw oedema assay described by D'Agostino et al. (2007) was used to evaluate the acute anti-inflammatory activity of the conjugate. Mice were divided into control and test groups of six animals each. Initial paw volumes of all animals were measured using a plethysmometer apparatus (Ugo Basile, Milan, Italy) before treatment. Paw oedema was induced by a subplantar injection of 50 μL of saline containing 1% λ-carrageenan into the right hind paw. […] free acid and ketogal were orally administrated 1 h before carrageenan challenge. Paw volume was measured at different time intervals by plethysmometer. The increase in paw volume was evaluated as the difference between the paw volume measured at each time point and the basal paw volume measured immediately before carrageenan injection.

[2] = system: mouse carrageenan paw oedema; assay: Carrageenan oedema test; type: in vivo, mice; conditions: pro-drug 16.3 mg/kg oral, 1 h before carrageenan
[3] = Chemical stability of the pro-drug (phosphate buffer pH 7.4; HCl 0.1 N pH 1), HPLC; type: physicochemical; conditions: in the dark; for pH 7.4 T½: phosphate buffer at pH 7.4, 37° C.; for pH 1 T½: solution of HCl 0.1 N (pH 1), 37° C.
Method: For the stability study, the solutions of pro-drug were prepared by dissolving an aliquot of Ketogal in a phosphate buffer at pH 7.4, or else in a solution of HCl 0.1 N (pH 1), as regards chemical stability, or else in a plasma specimen, for enzymatic stability. The solutions were kept in the dark, at a temperature of 37° C., for 24 hours. After each hour an aliquot of specimen was taken. In the case of plasma, said aliquot was previously extracted with acetonitrile (1:2), “vortexed” and centrifuged at 3000 r.p.m. for 10 min. The supernatant was taken and used for analysis at HPLC with diode detector. The half-lives for chemical stability and enzymatic stability were calculated by quantizing, in time, the percentage of pro-drug that remained in solution. For the chromatographic separations, a 1090L HPLC (Hewlett-Packard, Palo Alto, USA) was used, coupled to a diode detector HP 1040A. A Phenomenex Luna C18 (250×4.6 mm, 5 μm) column was used. The wavelength used was 313 nm. The mobile phase was constituted by acetonitrile and an aqueous solution of phosphoric acid […] (pH 3) in the ratio of 68:32. The flow was 1 mL/min, with an injection volume of 20 μl. All the reagents and the solvents used were of analytical degree. The distilled and deionized water was purified by means of a Milli Q system (Millipore). The retention times of the compounds were: ketorolac: 6.7 min; Ketogal: 3.8 min. As internal standard tolmetin was used (9.3 min). The straight line of calibration for quantification of the compounds was constructed using standard solutions with concentrations of between 0.1 and 100 μg/ml. The linearity was obtained with a coefficient of regression (R^2) of approximately 0.998.
For the study of the stability, the solutions of pro-drug were prepared by dissolving an aliquot of Flugal in a phosphate buffer at pH 7.4, as regards chemical stability, or else in a plasma specimen, for enzymatic stability. The solutions were kept in the dark, at a temperature of 37° C., for 24 hours. After each hour an aliquot of specimen was taken. In the case of the plasma said amount was previously extracted with acetonitrile (1:2), “vortexed”, and centrifuged at 3000 r.p.m. for 10 min. The supernatant was taken and used for analysis at HPLC with diode detector. The half-lives for the chemical stability and enzymatic stability were calculated by quantizing, in time, the percentage of pro-drug that remained in solution. A 1090L HPLC (Hewlett-Packard, Palo Alto, USA) coupled to a diode detector HP 1040A was used for the chromatographic separations. The column used was a Supelcosil LC-18, 250×4.6 mm, particle size […]. The volume injected was […] and the flow of 1 mL/min. The mobile phase was constituted by a mixture of aqueous CH3CN/H3PO4 1 mM (pH 3) [32:68]. For the quantitative determination reading was made at 250 nm. The retention times of the various compounds involved in the analysis were: for Flugal 6 min and for flurbiprofen 11 min. All the reagents and the solvents used were of analytical degree. The distilled and deionized water was purified by means of a Milli Q system (Millipore). The straight line of calibration for the quantification of the compounds was constructed using standard solutions with concentrations of between 0.1 and 100 μg/ml. Linearity was obtained with a coefficient of regression (R^2) of approximately 0.998. From the results of said analysis (illustrated in Table 3) it emerges that the pro-drug Flugal has a good chemical stability and a good susceptibility to enzymatic hydrolysis.
Chemical stability was assessed also at pH 1.0 in a solution of HCl 0.1N as described.
For the stability study, the solutions of pro-drug were prepared by dissolving an aliquot of Okigal in a phosphate buffer at pH 7.4, or else in a solution of HCl 0.1 N (pH 1), as regards chemical stability, or else in a plasma specimen, for enzymatic stability. The solutions were kept in the dark, at a temperature of 37° C., for 24 hours. […]

[4] = Enzymatic stability in plasma, HPLC; type: in vitro ADME; conditions: plasma specimen, 37° C., in the dark; read-out: Plasma T½ (converted)
Method: For the stability study, the solutions of pro-drug were prepared by dissolving an aliquot of Ketogal in a phosphate buffer at pH 7.4, or else in a solution of HCl 0.1 N (pH 1), as regards chemical stability, or else in a plasma specimen, for enzymatic stability. The solutions were kept in the dark, at a temperature of 37° C., for 24 hours. After each hour an aliquot of specimen was taken. In the case of plasma, said aliquot was previously extracted with acetonitrile (1:2), “vortexed” and centrifuged at 3000 r.p.m. for 10 min. The supernatant was taken and used for analysis at HPLC with diode detector. The half-lives for chemical stability and enzymatic stability were calculated by quantizing, in time, the percentage of pro-drug that remained in solution. For the chromatographic separations, a 1090L HPLC (Hewlett-Packard, Palo Alto, USA) was used, coupled to a diode detector HP 1040A. A Phenomenex Luna C18 (250×4.6 mm, 5 μm) column was used. The wavelength used was 313 nm. The mobile phase was constituted by acetonitrile and an aqueous solution of phosphoric acid […] (pH 3) in the ratio of 68:32. The flow was 1 mL/min, with an injection volume of 20 μl. All the reagents and the solvents used were of analytical degree. The distilled and deionized water was purified by means of a Milli Q system (Millipore). […] The straight line of calibration for quantification of the compounds was constructed using standard solutions with concentrations of between 0.1 and 100 μg/ml. […]
For the study of the stability, the solutions of pro-drug were prepared by dissolving an aliquot of Flugal in a phosphate buffer at pH 7.4, as regards chemical stability, or else in a plasma specimen, for enzymatic stability. […] The half-lives for the chemical stability and enzymatic stability were calculated by quantizing, in time, the percentage of pro-drug that remained in solution. […] For the quantitative determination reading was made at 250 nm. […] The straight line of calibration for the quantification of the compounds was constructed using standard solutions with concentrations of between 0.1 and 100 μg/ml. […]

PGE synthase = assay: Western blot, stomach, PGE synthase protein expression; type: in vivo, mice; conditions: ketorolac 10 mg/Kg, ketogal 16.3 mg/Kg, oral, 3, 5 and 7 days
Source text: (§1) Animals were sacrificed and then liver, stomach and kidney were collected in glass tubes and analysed histologically and biochemically.

male Swiss mice [5] = assay: Ulcerogenicity studies, ketorolac and Ketogal (gastric lesions); type: in vivo; conditions: oral, ketorolac 10.0 mg/kg, Ketogal 16.3 mg/kg, after 4 hours
Method: The gastric lesions were evaluated in male Swiss mice. To the fasted animals (16-18 h) were administered, by oral route, ketorolac (10 mg/kg), Ketogal (16.3 mg/kg), or the vehicle. After 4 hours, the mice were sacrificed and the stomach removed, cut along the major curvature, washed with physiological solution, and the mucous was examined for evaluation of the presence of petechias and/or gastric lesions. A “score” of 1 was assigned to the petechias, and a “score” based on the diameter (a “score” of 5 for lesions of a diameter of less than 1 mm; a “score” of 10 for lesions with a diameter of more than 1 mm) was, instead, assigned to the lesions.

male Swiss mice [6] = assay: Chronic and sub-chronic experiments: liver, kidney and stomach examination; type: in vivo; conditions: ketorolac 10 mg/Kg, ketogal 16.3 mg/Kg, oral
Method: as §1
Liver samples were fixed in 10% buffered formalin and embedded in paraffin, sliced, and stained with hematoxylin & eosin (H&E) for assessment of liver pathology. […] To confirm histological data, western blot analysis for TNF-alpha, IL-6 and malonyldialdehyde assay were then performed in liver lysates.

PPAR-gamma = assay: Western blot, stomach, PPAR-gamma protein expression; type: in vivo, mice; conditions: ketorolac 10 mg/Kg, ketogal 16.3 mg/Kg, oral, 3, 5 and 7 days
Source text: as §1

[7] = system: writhing induced by acetic acid; assay: Writhing test induced by acetic acid; type: in vivo, mice; conditions: 60 min prior to acetic acid
Method: The analgesic activity was studied using the “writhing test” using acetic acid and using magnesium sulphate. To the mice there was administered by intraperitoneal route 1 mL of solution at 1% of acetic acid, and the number of writhing events was evaluated for 20 min, after 5 min from administration of the solution of acetic acid. Writhing is defined as a contraction of the abdominal muscles accompanied by elongation of the body and of the rear legs. Ketorolac and Ketogal were administered by oral route 60 min prior to administration of the solution of acetic acid. The analgesic effect is expressed in number of writhing events as compared to the control.

COX-1 = assay: Western blot, stomach, COX-1 protein expression; type: in vivo, mice; conditions: ketorolac 10 mg/Kg, ketogal 16.3 mg/Kg, oral, 3, 5 and 7 days; versus control stomachs
Source text: as §1

[8] = system: writhing induced by magnesium sulphate; assay: Writhing induced by magnesium sulphate (visceral pain); type: in vivo, mouse; conditions: ketorolac 0.01 to 10 mg/kg, Ketogal in equimolar dose; 1 hour before magnesium sulphate 120 mg/kg
Method: In order to determine whether ketorolac and Ketogal are able to inhibit visceral pain, the effects of these compounds on “writhing” induced by magnesium sulphate were tested. Magnesium sulphate induces a reversible response when injected by intraperitoneal route in the mouse. The administration of 120 mg/kg of magnesium sulphate induces an average of 6±0.9 episodes of “writhing” in the mouse (n=6).

mice = assay: Ulcerogenicity studies, flurbiprofen and flugal (NSAID-induced gastric damage in mice); type: in vivo; conditions: oral, after 4 h; for gastric lesion score / n. of ulcers: flurbiprofen 10 mg/kg, flugal 16.6 mg/kg (table); for n. of ulcers: fasted mice
Method: NSAID-induced gastric damage in mice was evaluated following the procedure described by Chan et al. (1995). […] After 4 h of treatment, mice were euthanized and the stomach was excised along its greater curvature and rinsed with normal saline. The mucosa was then examined by means of a magnifying glass for the presence of irritation or frank hemorrhagic lesions (ulcers). Irritation was assigned a score of 1, and ulcerations were scored according to their length (a score of 5 for lesions with a length between 1 and 3 mm; a score of 10 for lesions greater than 3 mm). The sum of total scores was used for comparison.

pH 7.4 T½ [3] [hours]	pH 1 T½ [3] [hours]	half-life [4] [h]	SMILES	Carrageenan-induced oedema, first phase (0-6 h) ([1]; 1 h before carrageenan)	Carrageenan-induced oedema, second phase (24-96 h) [2]	Oedema formation after parent drug ([1]; 1 h before carrageenan)	gastric lesion score (mice)	n. of ulcers (mice)	other results
>8	>8	4	CC(C(=O)OCC1O[C@H](O)C(O)C(O)[C@H]1O)c1cccc(C(=O)c2ccccc2)c1 (stereo partly drawn) [Okigal, Ketoprofen-D-galactos-6′-yl ester]	slightly modify carrageenan-induced oedema	significant anti-inflammatory effect	–	–	–	–
–	–	–	O=C(c1ccccc1)c1ccc2n1CC[C@@H]2C(=O)O [ketorolac, reference compound]	–	–	–	–	–	Formation of oedema, first phase, lowest dose ([1]; ketorolac 0.1 mg/kg oral, first phase): had no effect; Gastric PGE synthase protein expression (PGE synthase): significantly reduced; Degree of ulcerogenicity (male Swiss mice [5]; score 1 petechias, 5 or 10 lesions): 10; Number of ulcers (male Swiss mice [5]; fasted mice): 4 ± 0.4; Kidney histology (male Swiss mice [6]; after 3, 5 and 7 days): normal kidney histology; Stomach samples, ulcerogenicity (male Swiss mice [6]; for 3 days): high ulcerogenicity degree; Gastric PPAR-gamma protein expression (PPAR-gamma): significantly reduced; Dosages with significant analgesic effect (p<0.01) ([7]; ketorolac by oral route): significant at the dosages of 1 and 10 mg/kg; Analgesic effect (number of writhing events compared to control) ([7]; oral, ketorolac 0.01-10 mg/kg, Ketogal 0.0163-16.3 mg/kg): dose-dependent analgesic effect; Gastric COX-1 protein expression (COX-1): significantly inhibited; Inhibition of writhing induced by magnesium sulphate [8]: able to inhibit this response in a dose-dependent way
–	–	–	CC(C(=O)O)c1ccc(-c2ccccc2)c(F)c1 (centres unmarked) [flurbiprofen, reference compound]	–	–	significantly inhibited oedema formation until 48 h	2	3 ± 1.5	–
–	–	–	CC(C(=O)O)c1cccc(C(=O)c2ccccc2)c1 (centres unmarked) [Ketoprofen, ketoprofen, reference compound]	–	–	significantly inhibited oedema formation until 48 h	–	–	–
–	–	–	O=C[C@H](O)[C@@H](O)[C@@H](O)[C@H](O)CO [galactose, reference compound]	–	–	–	–	–	Anti-inflammatory activity of galactose alone ([1]; galactose 16.3 mg/kg oral, 1 h before carrageenan): no anti-inflammatory activity
>8	>8	1	CC(C(=O)OCC1O[C@H](O)C(O)[C@@H](O)[C@H]1O)c1ccc(-c2ccccc2)c(F)c1 (stereo partly drawn) [Flugal, flurbiprofen-D-galactos-6′-yl ester]	did not modify carrageenan-induced oedema	significant anti-inflammatory effect	–	0	1 ± 1	Ulcerogenic activity (in words) (mice; flugal 16.3 mg/kg): caused only irritation without ulceration
